Data taken from US9255295B2, “Method for evaluating the sensitizing potential of a test compound” (IMMUNOSEARCH, priority 2010, dated 2016).
Several values for one entry are separate records, joined by “and”; a condition that tells them apart may be missing. Equal entries are not always repeated. Where two headings read alike, the source gives them in different places.

What was measured:
[1] = tested on: genes specific for sensitization (BRAK, CTSS, DAPK2, FABP4, HSP27, IL18, HSP90, IL1R2, TPSAB1, CXCR1, DEFB1, DHFR, EHF, IVL, KRT4, MELANA, NGAL, PDZK1IP1, PI3 …); assay: Expression of the other (non-ARE) sensitization-specific genes in EPISKIN reconstructed skin (quantitative RT-PCR); format: cell-based, human
[2] = tested on: ARE gene family (AKR1B10, AKR1C1, AKR1C2, CYP1B1, FTH1P, FTL, G6PD, GCLM, NQO2, SLC7A11, TXNRD1, UGT1A1, UGT1A9, YWHAZ, CD36, CYP1A1, GCLC, HMOX1, NQO1, PSME2 …)

Nc1ccccc1O [2-aminophenol]
sensitizing power (class) (EPISKIN model): STRONG | BRAK grade (NUMBER OF GENES) [1]: 0 (key: If the expression is greater than 1.3 compared to the control, a grade of 11s given; if this expression is lower, the grade is 0) | CTSS expression compared to control [1]: 1.3 and 1.2 and 1.4 | DAPK2 expression compared to control [1]: 1.0 and 0.9 | DAPK2 grade (NUMBER OF GENES) [1]: 0 (key: If the expression is greater than 1.3 compared to the control, a grade of 11s given; if this expression is lower, the grade is 0) | DEFB1 expression compared to control [1]: 1.9 and 1.8 and 1.4 and 1.1 | DHFR expression compared to control [1]: 0.9 and 1.2 | DHFR grade (NUMBER OF GENES) [1]: 0 (key: If the expression is greater than 1.3 compared to the control, a grade of 11s given; if this expression is lower, the grade is 0) | EHF expression compared to control [1]: 1.7 and 1.5 and 1.4 and 1.2 | FABP4 expression compared to control [1]: 1.1 and 0.7 and 0.9 | FABP4 grade (NUMBER OF GENES) [1]: 0 (key: If the expression is greater than 1.3 compared to the control, a grade of 11s given; if this expression is lower, the grade is 0) | HSP27 expression compared to control [1]: 1.0 and 1.1 and 0.8 | HSP27 grade (NUMBER OF GENES) [1]: 0 (key: If the expression is greater than 1.3 compared to the control, a grade of 11s given; if this expression is lower, the grade is 0) | HSP90 expression compared to control [1]: 1.5 and 1.2 and 1.0 | IL18 expression compared to control [1]: 0.9 and 0.8 and 1.1 | IL18 grade (NUMBER OF GENES) [1]: 0 (key: If the expression is greater than 1.3 compared to the control, a grade of 11s given; if this expression is lower, the grade is 0) | IVL expression compared to control [1]: 1.8 and 1.3 and 0.9 | KRT4 expression compared to control [1]: 1.7 and 1.1 | MELANA grade (NUMBER OF GENES) [1]: 0 (key: If the expression is greater than 1.3 compared to the control, a grade of 11s given; if this expression is lower, the grade is 0) | NGAL expression compared to control [1]: 1.8 and 1.9 and 1.5 and 1.1 | P13 expression compared to control [1]: 1.5 and 1.4 and 1.2 and 1.3 | PDZK1iP1 expression compared to control [1]: 1.0 | PDZK1iP1 grade (NUMBER OF GENES) [1]: 0 (key: If the expression is greater than 1.3 compared to the control, a grade of 11s given; if this expression is lower, the grade is 0) | SERPINB3 expression compared to control [1]: 1.4 and 1.2 and 1.3 | AHR expression compared to control ([2]; 0.1%): 1.0 | AHR grade (NUMBER OF GENES) ([2]; 0.1%): 0 (if this expression is lower, the grade is 0) | AKR1B10 expression compared to control ([2]; 0.1%): 0.8 | AKR1B10 grade (NUMBER OF GENES) ([2]; 0.1%): 0 (if this expression is lower, the grade is 0) | AKR1C1 expression compared to control ([2]; 0.1%): 1.2 | AKR1C1 grade (NUMBER OF GENES) ([2]; 0.1%): 0 (if this expression is lower, the grade is 0) | AKR1C2 expression compared to control ([2]; 0.1%): 1.1 | AKR1C2 grade (NUMBER OF GENES) ([2]; 0.1%): 0 (if this expression is lower, the grade is 0) | ARE >1.3 (NUMBER OF GENES) ([2]; 0.1%): 5 | CD36 expression compared to control ([2]; 0.1%): 0.9 | CD36 grade (NUMBER OF GENES) ([2]; 0.1%): 0 (if this expression is lower, the grade is 0) | CYP1A1 expression compared to control ([2]; 0.1%): 7.1 | CYP1A1 grade (NUMBER OF GENES) ([2]; 0.1%): 1 (If the expression is greater than 1.3 compared to the control, a grade of 11s given) | CYP1B1 expression compared to control ([2]; 0.1%): 5.3 | CYP1B1 grade (NUMBER OF GENES) ([2]; 0.1%): 1 (If the expression is greater than 1.3 compared to the control, a grade of 11s given) | FTH1P expression compared to control ([2]; 0.1%): 0.9 | FTH1P grade (NUMBER OF GENES) ([2]; 0.1%): 0 (if this expression is lower, the grade is 0) | FTL expression compared to control ([2]; 0.1%): 1.0 | FTL grade (NUMBER OF GENES) ([2]; 0.1%): 0 (if this expression is lower, the grade is 0) | GCLC expression compared to control ([2]; 0.1%): 1.1 | GCLC grade (NUMBER OF GENES) ([2]; 0.1%): 0 (if this expression is lower, the grade is 0) | GCLM expression compared to control ([2]; 0.1%): 2.1 | GCLM grade (NUMBER OF GENES) ([2]; 0.1%): 1 (If the expression is greater than 1.3 compared to the control, a grade of 11s given) | HMOX1 expression compared to control ([2]; 0.1%): 1.1 | HMOX1 grade (NUMBER OF GENES) ([2]; 0.1%): 0 (if this expression is lower, the grade is 0) | NQO1 expression compared to control ([2]; 0.1%): 0.9 | NQO1 grade (NUMBER OF GENES) ([2]; 0.1%): 0 (if this expression is lower, the grade is 0) | NQO2 expression compared to control ([2]; 0.1%): 1.0 | NQO2 grade (NUMBER OF GENES) ([2]; 0.1%): 0 (if this expression is lower, the grade is 0) | S100A8 expression compared to control ([2]; 0.1%): 1.4 | S100A8 grade (NUMBER OF GENES) ([2]; 0.1%): 1 (If the expression is greater than 1.3 compared to the control, a grade of 11s given) | SLC7A11 expression compared to control ([2]; 0.1%): 2.1 | SLC7A11 grade (NUMBER OF GENES) ([2]; 0.1%): 1 (If the expression is greater than 1.3 compared to the control, a grade of 11s given) | TOTAL ARE (NUMBER OF GENES) ([2]; 0.1%): 5 | TXNRD1 expression compared to control ([2]; 0.1%): 3.0 | TXNRD1 grade (NUMBER OF GENES) ([2]; 0.1%): 1 (If the expression is greater than 1.3 compared to the control, a grade of 11s given) | UGT1A1 expression compared to control ([2]; 0.1%): 0.9 | UGT1A1 grade (NUMBER OF GENES) ([2]; 0.1%): 0 (if this expression is lower, the grade is 0) | UGT1A9 expression compared to control ([2]; 0.1%): 1.1 | UGT1A9 grade (NUMBER OF GENES) ([2]; 0.1%): 0 (if this expression is lower, the grade is 0) | AHR expression compared to control ([2]; 1%): 0.6 | AHR grade (NUMBER OF GENES) ([2]; 1%): 0 (if this expression is lower, the grade is 0) | AKR1B10 expression compared to control ([2]; 1%): 0.9 | AKR1B10 grade (NUMBER OF GENES) ([2]; 1%): 0 (if this expression is lower, the grade is 0) | AKR1C1 expression compared to control ([2]; 1%): 4.3 | AKR1C1 grade (NUMBER OF GENES) ([2]; 1%): 1 (If the expression is greater than 1.3 compared to the control, a grade of 11s given) | AKR1C2 expression compared to control ([2]; 1%): 1.2 | AKR1C2 grade (NUMBER OF GENES) ([2]; 1%): 0 (if this expression is lower, the grade is 0) | ARE >1.3 (NUMBER OF GENES) ([2]; 1%): 10 | CD36 expression compared to control ([2]; 1%): 0.6 | CD36 grade (NUMBER OF GENES) ([2]; 1%): 0 (if this expression is lower, the grade is 0) | CYP1A1 expression compared to control ([2]; 1%): 14.6 | CYP1A1 grade (NUMBER OF GENES) ([2]; 1%): 1 (If the expression is greater than 1.3 compared to the control, a grade of 11s given) | CYP1B1 expression compared to control ([2]; 1%): 15.6 | CYP1B1 grade (NUMBER OF GENES) ([2]; 1%): 1 (If the expression is greater than 1.3 compared to the control, a grade of 11s given) | FTH1P expression compared to control ([2]; 1%): 1.2 | FTH1P grade (NUMBER OF GENES) ([2]; 1%): 0 (if this expression is lower, the grade is 0) | FTL expression compared to control ([2]; 1%): 2.1 | FTL grade (NUMBER OF GENES) ([2]; 1%): 1 (If the expression is greater than 1.3 compared to the control, a grade of 11s given) | GCLC expression compared to control ([2]; 1%): 2.2 | GCLC grade (NUMBER OF GENES) ([2]; 1%): 1 (If the expression is greater than 1.3 compared to the control, a grade of 11s given) | GCLM expression compared to control ([2]; 1%): 3.5 | GCLM grade (NUMBER OF GENES) ([2]; 1%): 1 (If the expression is greater than 1.3 compared to the control, a grade of 11s given) | HMOX1 expression compared to control ([2]; 1%): 1.4 | HMOX1 grade (NUMBER OF GENES) ([2]; 1%): 1 (If the expression is greater than 1.3 compared to the control, a grade of 11s given) | NQO1 expression compared to control ([2]; 1%): 1.1 | NQO1 grade (NUMBER OF GENES) ([2]; 1%): 0 (if this expression is lower, the grade is 0) | NQO2 expression compared to control ([2]; 1%): 1.1
